Laboratory results reported in US12209085B2, “RET inhibitors, pharmaceutical compositions and uses thereof” (SUNSHINE LAKE PHARMA CO., LTD., priority 2018, dated 2025).

Columns and labels:
Ret V804M = Ret V804M (Homo sapiens (Human), UniProt P07949, V804M); test: HTRF kinase inhibition assay, Ret V804M; type: biochemical; details: HTRF method
Description: (§1) • 1. […] 1) • 18) Echo (Labcyte, 550) • 3.
(§2) [formula] • Ratiopositive control: average of CEP-32496 readings in all positive control wells • Rationegative control: average of DMSO readings in all negative control wells • Wherein, the chemical name of CEP-32496 is: N-[3-[(6,7-dimethoxy-4-quinazolinyl)oxy]phenyl]-N′-[5-(2,2,2-trifluoro-1,1-dimethylethyl)-3-isoxazolyl]urea. • 4.3 Calculation of the IC50 and Drawing of the inhibition curve of the compound: • The IC50 (half inhibitory concentration) of the compound was obtained using the following non-linear fitting formula: Data analysis was performed using Graphpad 6.0 software. Y=Bottom+(Top−Bottom)/(1+10^((Log IC50−X)*Hill Slope)) • X: compound concentration log value Y: inhibition, % • 5.

Ret wt = Ret wt (Homo sapiens (Human), UniProt P07949); test: HTRF kinase inhibition assay, Ret wt; type: biochemical; details: HTRF method
Sequence of Ret wt (P07949 29-1114): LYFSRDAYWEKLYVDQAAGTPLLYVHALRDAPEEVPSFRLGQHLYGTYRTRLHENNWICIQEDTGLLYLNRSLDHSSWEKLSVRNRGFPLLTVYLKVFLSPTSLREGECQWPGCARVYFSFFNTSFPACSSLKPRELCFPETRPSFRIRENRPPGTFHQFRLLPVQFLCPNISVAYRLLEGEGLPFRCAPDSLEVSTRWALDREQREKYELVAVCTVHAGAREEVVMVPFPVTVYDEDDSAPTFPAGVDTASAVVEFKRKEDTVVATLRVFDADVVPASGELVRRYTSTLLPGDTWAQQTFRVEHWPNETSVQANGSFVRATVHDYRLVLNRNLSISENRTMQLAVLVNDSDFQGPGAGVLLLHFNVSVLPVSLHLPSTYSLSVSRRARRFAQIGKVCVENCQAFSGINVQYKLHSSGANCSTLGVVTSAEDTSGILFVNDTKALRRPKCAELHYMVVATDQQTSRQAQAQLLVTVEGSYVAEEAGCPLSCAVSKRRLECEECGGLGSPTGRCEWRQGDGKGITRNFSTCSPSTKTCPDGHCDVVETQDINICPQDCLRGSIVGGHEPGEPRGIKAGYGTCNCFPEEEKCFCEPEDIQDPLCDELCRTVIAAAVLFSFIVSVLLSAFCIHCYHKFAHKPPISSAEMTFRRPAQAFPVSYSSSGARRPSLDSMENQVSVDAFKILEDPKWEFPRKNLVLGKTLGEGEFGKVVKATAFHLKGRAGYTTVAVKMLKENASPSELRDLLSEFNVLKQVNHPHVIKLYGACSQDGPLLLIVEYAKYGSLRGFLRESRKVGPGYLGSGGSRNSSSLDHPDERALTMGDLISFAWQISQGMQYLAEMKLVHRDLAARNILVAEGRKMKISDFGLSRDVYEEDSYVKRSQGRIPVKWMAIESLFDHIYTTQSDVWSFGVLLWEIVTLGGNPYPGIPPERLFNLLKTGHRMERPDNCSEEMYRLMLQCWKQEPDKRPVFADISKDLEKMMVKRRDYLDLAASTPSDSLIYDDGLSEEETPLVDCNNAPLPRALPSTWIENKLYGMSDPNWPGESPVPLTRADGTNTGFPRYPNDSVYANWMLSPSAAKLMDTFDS
Description: as §1, §2

Sequence of Ret V804M (P07949 29-1114 V804M): as the sequence (P07949 29-1114) above, with V776M counted along it

Compound	IC50 (Ret V804M)	IC50 (Ret wt)
C#CC(=O)N1C2CC1CN(c1ccc(-c3cc(-c4cnn(C)c4)cn4ncc(C#N)c34)cn1)C2 [Example 31, 6-(1-methyl-1H-pyrazol-4-yl)-4-(6-(6-propioloyl-3,6-diazabicyclo[3.1.1]heptan-3-yl)pyridin-3-yl)pyrazolo[1,5-a]pyridine-3-carbonitrile]	44.3 nM	1.95 nM
Cn1cc(-c2cc(-c3ccc(N4CC5CC(C4)N5CC#Cc4cccnc4F)nc3)c3c(C#N)cnn3c2)cn1 [Example 256, 4-[6-[6-[3-(2-fluoro-3-pyridyl)prop-2-ynyl]-3,6-diazabicyclo[3.1.1]heptan-3-yl]3-pyridyl]-6-(1-methylpyrazol-4-yl)pyrazolo[1,5-a]pyridine-3-carbonitrile]	0.44 nM	0.14 nM
C#Cc1cccc(CN2C3CC2CN(c2ccc(-c4cc(-c5cnn(C)c5)cn5ncc(C#N)c45)cn2)C3)n1 [Example 221, 4-(6-(6-((6-ethynylpyridin-2-yl)methyl)-3,6-diazabicyclo[3.1.1]hept-3-yl)pyridin-3-yl)-6-(1-methyl-1H-pyrazol-4-yl)pyrazolo[1,5-a]pyridine-3-carbonitrile]	12.4 nM	0.55 nM
Cn1cc(-c2cc(-c3ccc(N4CC5CC(C4)N5CC#Cc4ccncc4)nc3)c3c(C#N)cnn3c2)cn1 [Example 245, 6-(1-methyl-1H-pyrazol-4-yl)-4-(6-(6-(3-(pyridin-4-yl)propan-2-yn-1-yl)-3,6-diazabicyclo[3.1.1]heptan-3-yl)pyridin-3-yl)pyrazole[1,5-a]pyridine-3-carbonitrile]	10.7 nM	0.65 nM
Cn1cc(-c2cc(-c3ccc(N4CC5CC(C4)N5C(=O)C#Cc4cccnc4)nc3)c3c(C#N)cnn3c2)cn1 [Example 273, 6-(1-methyl-1H-pyrazol-4-yl)-4-(6-(6-(3-(pyridin-3-yl)propioloyl]-3,6-diazabicyclo[3.1.1]heptan-3-yl]-3-pyridin]pyrazolo[1,5-a]pyridine-3-carbonitrile]	82.6 nM	4.28 nM
Cn1cc(-c2cc(-c3ccc(N4CC5CC(C4)N5CC#Cc4ccc(F)nc4)nc3)c3c(C#N)cnn3c2)cn1 [Example 262, 4-[6-[6-[3-(6-fluoro-3-pyridyl)prop-2-ynyl]-3,6-diazabicyclo[3.1.1]heptan-3-yl]3-pyridyl]-6-(1-methylpyrazol-4-yl)pyrazolo[1,5-a]pyridine-3-carbonitrile]	1.92 nM	0.2 nM
Cn1cc(-c2cc(-c3ccc(N4CC5CC(C4)N5CC#Cc4ccccc4)nc3)c3c(C#N)cnn3c2)cn1 [Example 250, 6-(1-methyl-1H-pyrazol-4-yl)-4-(6-(6-(3-phenylprop-2-yn-1-yl)-3,6-diazabicyclo[3.1.1]heptanpyridin-3-yl)pyridin-3-yl)pyrazolo[1,5-a]pyridine-3-carbonitrile]	0.88 nM	0.14 nM
Cn1cc(-c2cc(-c3ccc(N4CC5CC(C4)N5CC#Cc4ncccc4F)nc3)c3c(C#N)cnn3c2)cn1 [Example 258, 4-(6-(6-(3-(3-fluoropyridin-2-yl)prop-2-yn-1-yl)-3,6-diazabicyclo[3.1.1]heptane-3-yl)pyridin-3-yl)-6-(1-methyl-1H-pyrazol-4-yl)pyrazoline[1,5-a]pyridin-3-carbonitrile]	0.21 nM	0.15 nM
Cn1cc(-c2cc(-c3ccc(N4CC5CC(C4)N5CC#Cc4cncc(F)c4)nc3)c3c(C#N)cnn3c2)cn1 [Example 259, 4-(6-(6-(3-(5-fluoropyridin-3-yl)prop-2-yn-1-yl)-3,6-diazabicyclo[3.1.1]heptane-3-yl)pyridin-3-yl)-6-(1-methyl-1H-pyrazol-4-yl)pyrazolo[1,5-a]pyridin-3-carbonitrile]	0.91 nM	0.16 nM

Next, values leading:

IC50 (Ret V804M)	IC50 (Ret wt)	Compound
3.21 nM	0.25 nM	COc1ccnc(C#CCN2CCN(c3ccc(-c4cc(-c5cnn(C)c5)cn5ncc(C#N)c45)cn3)CC2)c1 [Example 252, 4-(6-(4-(3-(4-methoxypyridin-2-yl)propan-2-ynyl-1-yl)piperazin-1-yl)pyridin-3-yl)-6-(1-methyl-1H-pyrazolin-4-yl)pyrazole[1,5-a]pyridine-3-carbonitrile]
2.22 nM	0.39 nM	C#Cc1ccc(CN2CCN(c3ccc(-c4cc(-c5cnn(C)c5)cn5ncc(C#N)c45)cn3)CC2)nc1 [Example 225]
62.3 nM	4 nM	C#Cc1cc(F)c(C(=O)N2CCN(c3ccc(-c4cc(-c5cnn(C)c5)cn5ncc(C#N)c45)cn3)CC2)c(F)c1 [Example 234, 4-(6-(4-(4-ethynyl-2,6-difluorobenzoyl)piperazin-1-yl)pyridin-3-yl)-6-(1-methyl-1H-pyrazol-4-yl)pyrazolo[1,5-a]pyridine-3-carbonitrile]
19.7 nM	1.57 nM	C#Cc1ccc(C(=O)N2CCN(c3ccc(-c4cc(-c5cnn(C)c5)cn5ncc(C#N)c45)cn3)CC2)cc1F [Example 236, 4-(6-(4-(4-ethynyl-3-fluorobenzoyl)piperazin-1-yl)pyridin-3-yl)-6-(1-methyl-1H-pyrazol-4-yl)pyrazolo[1,5-a]pyridine-3-carbonitrile]
0.74 nM	0.17 nM	Cn1cc(-c2cc(-c3ccc(N4CCN(CC#Cc5ncccc5F)CC4)nc3)c3c(C#N)cnn3c2)cn1 [Example 257, 4-(6-(6-(3-(3-fluoropyridin-2-yl)prop-2-yn-1-yl)piperazin-3-yl)pyridin-3-yl)-6-(1-methyl-1H-pyrazol-4-yl)pyrazoline[1,5-a]pyridine-3-carbonitrile]
60.8 nM	2.9 nM	C#Cc1ccc(OC2CN(c3ccc(-c4cc(-c5c(C)noc5C)cn5ncc(C#N)c45)cn3)C2)cn1 [Example 282, 6-(3,5-dimethylisoxazol-4-yl)-4-(6-(3-((6-ethynylpyridin-3-yl)oxy)azetidin-1-yl)pyridin-3-yl)pyrazolo[1,5-a]pyridine-3-carbonitrile]
0.85 nM	0.85 nM	C#Cc1ccc(O[C@@H]2CCN(c3ccc(-c4cc(-c5cnn(C(F)F)c5)cn5ncc(C#N)c45)cn3)C2)cc1 [Example 286, (R)-6-(1-(difluoromethyl)-1H-pyrazol-4-yl)-4-(6-(3-(4-ethynylphenoxy)pyrrolidin-1-yl)pyridin-3-yl)pyrazolo[1,5-a]pyridine-3-carbonitrile]
0.92 nM	0.43 nM	C#Cc1ccc(OC2CN(c3ccc(-c4cc(-c5cnn(C6CC6)c5)cn5ncc(C#N)c45)cn3)C2)cn1 [Example 280, 6-(1-cyclopropyl-1H-pyrazol-4-yl)-4-(6-(3-((6-ethynylpyridin-3-yl)oxy)azetidin-1-yl)pyridin-3-yl)pyrazolo[1,5-a]pyridine-3-carbonitrile]
5.76 nM	0.58 nM	Cn1cc(-c2cc(-c3ccc(N4CCN(CC#Cc5cccnc5)CC4)nc3)c3c(C#N)cnn3c2)cn1 [Example 248, 6-(1-methylpyrazol-4-yl)-4-[6-[4-[3-(3-pyridyl)prop-2-ynyl]piperazin-1-yl]-3-pyridyl]pyrazolo[1,5-a]pyridine-3-carbonitrile]
8.2 nM	0.39 nM	C#CC(=O)N1CCN(c2ccc(-c3cc(-c4cnn(C)c4)cn4ncc(C#N)c34)cn2)CC1 [Example 5]
8.22 nM	0.58 nM	C#CC#CCN1CCN(c2ccc(-c3cc(-c4cnn(C)c4)cn4ncc(C#N)c34)cn2)CC1 [Example 275, 6-(1-methyl-1H-pyrazol-4-yl)-4-(6-(4-(penta-2,4-diyn-1-yl)piperazin-1-yl)pyridine-3-yl)pyrazolo[1,5-a]pyridine-3-carbonitrile]
